Measured values published in article PMC6691788, “Design and synthesis of phthalazine-based compounds as potent anticancer agents with potential antiangiogenic activity via VEGFR-2 inhibition” (Journal of Enzyme Inhibition and Medicinal Chemistry, 2019).

Assays:
HCT-15 = assay: NCI 60 cell panel SRB screen; format: cell-based; settings: Homo sapiens; HCT-15, single dose 10 μM; read-out: percent cell growth promotion
786-0 = assay: NCI 60 cell panel SRB screen; format: cell-based; settings: Homo sapiens; 786-0, single dose 10 μM; read-out: percent cell growth promotion
UACC-62 = assay: NCI 60 cell panel SRB screen; format: cell-based; settings: Homo sapiens, UACC-62, read-out: percent cell growth promotion
SF-295 = assay: NCI 60 cell panel SRB screen; format: cell-based; settings: Homo sapiens; SF-295, single dose 10 μM; read-out: percent cell growth promotion
NCI-H322M = assay: NCI 60 cell panel SRB screen; format: cell-based; settings: Homo sapiens, single dose 10 μM, read-out: percent cell growth promotion
full NCI 60 cell panel = assay: NCI 60 cell panel SRB screen, whole panel; format: cell-based, human; settings: for activity at 10 µM: Homo sapiens, 60 cell, mean over the panel, single dose 10 μM, read-out: Mean percent cell growth promotion; for cell growth inhibition, in words: single dose 10 µM
Excerpt: Aiming to evaluate the general antitumour activity of the synthesised phthalazines, the structures of the final compounds were submitted to National Cancer Institute “NCI” (www.dtp.nci.nih.gov), Bethesda, Maryland, USA. In vitro NCI anticancer screening involves two-stage process, the first stage started with the evaluation of the selected candidates against the full NCI 60 cell lines panel representing leukaemia, non-small cell lung cancer, melanoma, colon, CNS, breast, ovarian, renal and prostate cancers at a single dose of 10 µM. NCI selection is based on degree of structure variation and application of computer modelling techniques to prioritise compounds based on their ability to add diversity to the NCI small molecule compound collection.
Eight compounds (6b, 6e, 7b, 13a, 13c, 16a, 16d and 17a) were selected by NCI for further 5 log dose screening against full NCI 60 cell panel. All the 60 cell lines, representing nine tumour subpanels (leukaemia, non-small cell lung cancer, colon cancer, CNS cancer, prostate cancer, melanoma, ovarian cancer, renal cancer and breast cancer) which were incubated at five different concentrations (0.01, 0.1, 1, 10 and 100 µM) of each of the test compounds. The outcomes were used to create log concentration vs % growth inhibition curves, then three response parameters (GI50, TGI and LC50) were calculated for each cell line, (Tables S4 and S5 in Supplementary material).
The human tumor cell lines of the cancer-screening panel were grown in RPMI 1640 medium containing 5% fetal bovine serum and […] L-glutamine. For a typical screening experiment, cells are inoculated into 96 well microtiter plates in 100 ml at plating densities ranging from 5000 to 40,000 cells/well depending on the doubling time of individual cell lines. After cell inoculation, the microtiter plates are incubated at 37 °C, 5% CO2, 95% air and 100%
relative humidity for 24 h prior to addition of experimental drugs. After 24 h, two plates of each cell line are fixed in situ with TCA, to represent a measurement of the cell population for each cell line at the time of drug addition (Tz). Experimental drugs are dissolved in dimethyl sulfoxide at 400-fold the desired final maximum test concentration and stored frozen prior to use. At the time of drug addition, an aliquot of frozen concentrate is thawed and diluted to twice the desired final maximum test concentration with complete medium containing […] Gentamicin. Additional four, 10-fold or ½log serial dilutions are made to provide a total of five drug concentrations plus control. Aliquots of […] of these different drug dilutions are added to the appropriate microtiter wells already containing 100 ml of medium, resulting in the required final drug concentrations. Following drug addition, the plates are incubated for an additional 48 h at 37 °C, 5% CO2, 95% air, and 100% relative humidity. For adherent cells, the assay is terminated by the addition of cold TCA. Cells are fixed in situ by the gentle addition of […] of cold 50% (w/v) TCA (final concentration,10% TCA) and incubated for 60 min at 4 °C. The supernatant is discarded, and the plates are washed five times with tap water and air dried. Sulforhodamine B (SRB) solution (100 ml) at 0.4% (w/v) in 1% acetic acid is added to each well, and plates are incubated for 10 min at room temperature. After staining, unbound dye is removed by washing five times with 1% acetic acid and the plates are air dried. Bound stain is subsequently dissolved with 10 μM trizma base, and the absorbance is read on an automated plate reader at a wavelength of 515 nm. For suspension cells, the methodology is the same except that the assay is terminated by fixing settled cells at the bottom of the wells by gently adding […] of 80% TCA (final concentration, 16% TCA). […]

A498 = assay: NCI 60 cell panel SRB screen; format: cell-based; settings: Homo sapiens; A498, single dose 10 μM; read-out: percent cell growth promotion
UO-31 = assay: NCI 60 cell panel SRB screen; format: cell-based; settings: Homo sapiens; UO-31, single dose 10 μM; read-out: percent cell growth promotion
OVCAR-4 = assay: NCI 60 cell panel SRB screen; format: cell-based; settings: Homo sapiens; OVCAR-4, single dose 10 μM; read-out: percent cell growth promotion
COLO 205 = assay: NCI 60 cell panel SRB screen; format: cell-based; settings: Homo sapiens; COLO 205, single dose 10 μM; read-out: percent cell growth promotion
SF-539 = assay: NCI 60 cell panel SRB screen; format: cell-based, human; settings: SF-539, single dose 10 μM
EKVX = assay: NCI 60 cell panel SRB screen; format: cell-based, human; settings: single dose 10 μM
SK-MEL-2 = assay: NCI 60 cell panel SRB screen; format: cell-based; settings: SK-MEL-2, single dose 10 μM

Row | Compound | activity at 10 µM (HCT-15) | activity at 10 µM (786-0) | activity at 10 µM (UACC-62) | activity at 10 µM (SF-295) | activity at 10 µM (NCI-H322M) | activity at 10 µM (full NCI 60 cell panel) | cell growth inhibition, in words (full NCI 60 cell panel) | activity at 10 µM (A498) | activity at 10 µM (UO-31) | activity at 10 µM (OVCAR-4) | activity at 10 µM (COLO 205) | percent cell growth promotion (SF-539) | percent cell growth promotion (EKVX) | percent cell growth promotion (SK-MEL-2)
1 | CCOC(=O)N1CCN(c2nncc3ccccc23)CC1 [Compound 8a, Ethyl 4-(phthalazin-1-yl)piperazine-1-carboxylate] | 111% | 106% | 103% | 102% | 113% | 105% | nor the piperazines (8a, 8d, 8f, 8g, 8h and 8i) showed any significant cell line growth inhibition | 105% | 91.3% | 107% | 109% | – | – | –
2 | Cc1nnc(N2CCN(c3ccccn3)CC2)c2ccccc12 [Compound 8i, 1-Methyl-4–(4-(pyridin-2-yl)piperazin-1-yl)phthalazine] | 90.3% | 92.4% | 101% | 87.8% | 107% | 101% | nor the piperazines (8a, 8d, 8f, 8g, 8h and 8i) showed any significant cell line growth inhibition | – | 102% | 100% | 113% | – | – | –
3 | CCOC(=O)N1CCN(c2nnc(C)c3ccccc23)CC1 [Compound 8f, Ethyl 4–(4-methylphthalazin-1-yl)piperazine-1-carboxylate] | 98.6% | 93.3% | 109% | 94.2% | 101% | 101% | nor the piperazines (8a, 8d, 8f, 8g, 8h and 8i) showed any significant cell line growth inhibition | 76.5% | 92.2% | 97.8% | 109% | – | – | –
4 | O=C(Nc1ccc(Cl)cc1)Nc1ccc(Oc2nnc(Cl)c3ccccc23)cc1 [Compound 13b, 1–(4-Chlorophenyl)-3–(4-(4-chlorophthalazin-1-yloxy)phenyl)urea] | 94.1% | 114% | 75.7% | 91.6% | 99.1% | 88.7% | did not show any significant cell line growth inhibition | 103% | 53.9% | 72.1% | 106% | 84.86% | 62.48% | 93.58%
5 | Cc1nnc(Oc2ccc(NC(=O)Nc3ccc(Cl)cc3)cc2)c2ccccc12 [Compound 7e, 1–(4-Chlorophenyl)-3–(4-(4-methylphthalazin-1-yloxy)phenyl)urea] | 69.5% | 83.9% | 45.8% | 91.8% | 82.4% | 72.8% | moderate cell growth inhibition against leukaemia and breast cell lines | 51.5% | 51.4% | 70.8% | 87.4% | – | – | –
6 | Cc1nnc(N2CCN(c3ccccc3)CC2)c2ccccc12 [Compound 8g, 1-Methyl-4–(4-phenylpiperazin-1-yl)phthalazine] | 98.5% | 100% | 110% | 96% | 112% | 102% | nor the piperazines (8a, 8d, 8f, 8g, 8h and 8i) showed any significant cell line growth inhibition | 71.7% | 108% | 104% | 97.7% | – | – | –
7 | c1ccc(N2CCN(c3nncc4ccccc34)CC2)nc1 [Compound 8d, 1–(4-(Pyridin-2-yl)piperazin-1-yl)phthalazine] | 108% | 104% | 99.6% | 107% | 114% | 104% | nor the piperazines (8a, 8d, 8f, 8g, 8h and 8i) showed any significant cell line growth inhibition | 97.8% | 96% | 109% | 106% | – | – | –
8 | Cc1nnc(N2CCN(c3ccccc3F)CC2)c2ccccc12 [Compound 8h, 1–(4-(2-Fluorophenyl)piperazin-1-yl)-4-methylphthalazine] | 91.8% | 90.2% | 99.2% | 92.7% | 121% | 99% | nor the piperazines (8a, 8d, 8f, 8g, 8h and 8i) showed any significant cell line growth inhibition | 65.3% | 95.9% | 91.8% | 120% | – | – | –
9 | Cc1nnc(Nc2ccc(NC(=O)c3ccc(Cl)cc3)cc2)c2ccccc12 [Compound 5d, 4-Chloro-N-(4–(4-methylphthalazin-1-ylamino)phenyl)benzamide] | 101% | 109% | 95.9% | 105% | 112% | 93% | Neither of the biarylamides (5b, and 5d) nor the piperazines (8a, 8d, 8f, 8g, 8h and 8i) showed any significant cell line growth inhibition | 88.9% | 57.8% | 105% | 90.3% | – | – | –
10 | O=C(Nc1ccc(Nc2nncc3ccccc23)cc1)c1ccc(Cl)cc1 [Compound 5b, 4-Chloro-N-(4-(phthalazin-1-ylamino)phenyl)benzamide] | 109% | 107% | 89.8% | 102% | 109% | 101% | Neither of the biarylamides (5b, and 5d) nor the piperazines (8a, 8d, 8f, 8g, 8h and 8i) showed any significant cell line growth inhibition | 98.7% | 78.6% | 106% | 104% | – | – | –
